Results taken from patent publication US5215744A, “Methods for the treatment of tumors” (Boehringer Ingelheim GmbH, priority 1987, dated 1993).
Entries after “also recorded” stand apart in the source; their conditions may differ.

What was measured:
MM-1CB = assay: Cell proliferation inhibition test (trypan-blue exclusion), continuous exposure; format: cell-based, human
Description: (§1) Four established cell lines were used. These were MM-1CB, derived from tissues of malignant melanoma (level IV, pT4 N0 M0) in a person (Jpn. J. Dermatol. 96:947 (1986)); KT, derived from metastatic brain tumor in a person (J. Rad. Res. 26:59 (1985) and The 44th Meeting of Japanese Cancer Association, 718 (1985)); PLC/PRF/5, derived from human hepatoma (Brit. J. Cancer 34:509-515 (1976)) and a transformed cell line RSa (Virology 135:20-29 (1984), and J. Natl. Cancer Inst. 56:919-926 (1976)).
(§2) Cells were cultured with Eagle's minimal essential medium (EMEM) containing 10% fetal bovine serum (GIBCO, U.S.A.) and antibiotics ([…] streptomycin/ml and 100 units penicillin G/ml), in an incubator at 37° C. under 5% CO2.
(§3) Other chemical agents were purchased from the Nakarai Co., Ltd., Japan.
(§4) Changes of medium with and without agents were carried out every other day. The viable cells were determined by trypan-blue exclusion test and counted with a hemocytometer. The survival percentage ratio was expressed as (counts of viable cells in test dishes per counts of viable cells in control dishes) x 100%, as described elsewhere in, e.g., Mutation Research 106:357-376 (1982) and […]. 67:651-661 (1986).
(§5) Most of experiments were carried out under a dim light or in the dark. Results were expressed as the mean of values obtained from more than two independent experiments.

PLC/PRF/5 cells = assay: as above; format: cell-based, human; conditions: HuIFN and dipyridamole (FIG. 5)
Description: as §1, §2, §3, §4, §5

MM-1CB cells = assay: Tumor growth in nude mice, treatment from 3 days after MM-1CB implantation; format: in vivo, human tumor cells in male athymic nude mice (BALB/cA JcL-nu); conditions: combination of dipyridamole and interferon, 3 days after injection, vs each agent alone (FIG. 9)
Description: Male athymic nude mice (BALB/cA JcL-nu) used were 4 week old and weighed 14 to 18 g at the beginning of the experiment. All mice were given a basal diet (FR-II, Funabashi Nojo Co., Ltd., Funabashi) ad libitum.
Control animals were treated with phosphate buffered saline.
On day 62 post tumor implantation the size of each tumor was measured by caliper (two dimensions) and the measurements were converted to an approximation of tumor weight employing the formula: (a×b^2)/2, where a and b are the length and width of tumor, respectively.

DNA of MM-1CB cells = assay: Alkaline sucrose gradient assay (DNA damage); format: cell-based, human; conditions: 10 μM dipyridamole 24 h then 10^3 IU/ml IFNβ 24 h (FIG. 12)
Description: Cells (2×10^5), prelabelled with [^14 C]Thymidine, were seeded in 60 mm culture dishes and then cultured with and without agents. After the indicated tie cells were scraped off from the dishes and suspended in ice-cold phosphate-buffer saline solution containing 10 mM EDTA.
The cell suspensions were then exposed to 100R of X-rays in order to facilitate the unwinding and separation of DNA strands, and the solution containing SDS was applied to the cells, 2% of the final concentration of sodium dodecil sulfate (SDS).
The cell lysates were layered on alkaline solution with 5-20% sucrose gradients containing 0.1M NaOH and 0.1M NaCl. Then the gradients were immediately centrifuged at 10,000 rpm for 17 hr at 20° C. in a Hitachi RPS55T rotor.
After centrifugation, solutions were fractionated and collected onto Whatmann 17 CHROMA paper strips. Radioactivity of acid-insoluble materials on the strips were counted in toluene based scintillator. The percentage of the total dpm in each fraction was calculated taking the input dpm as 100%.
C 10^3 IU/ml IFNβ exposure for 48 hr;

interferon effect = assay: Enhancement of interferon effect in vitro; format: cell-based
[1] = test system: activity of N-phosphoracetyl-L-aspartate (PALA); conditions: in vitro and in vivo; cited from earlier work
[2] = test system: chinese hamster ovary cells; conditions: in vitro and in vivo; cited from earlier work
[3] = test system: salvage pathway of DNA synthesis; conditions: cited from earlier work
[4] = test system: nucleoside transport through the cell membrane; conditions: cited from earlier work

## OCCN(CCO)c1nc(N2CCCCC2)c2nc(N(CCO)CCO)nc(N3CCCCC3)c2n1 [dipyridamole, 2,6-bis(diethanolamine)-4,8-dipiperidino-pyrimido[5,4-d]pyrimidin]
MM-1CB; 0.1 μM dipyridamole continuously, 6 days (FIG. 3A)
  effect with HuIFN-α, -β and -γ: additive effect with HuIFN-α, -β and -γ was also observed
MM-1CB; 0.1 μM dipyridamole with 10 units/ml HuIFN-β, more than 4 days (FIG. 1)
  inhibition of cell growth: considerable inhibition of cell growth
MM-1CB; agent alone: 10 units/ml HuIFN-β or 0.1 μM dipyridamole (FIG. 1)
  suppression of cell proliferation: only slightly effective in suppressing cell proliferation
MM-1CB; with HuIFN, 6 days (FIG. 3B)
  lower concentration effective in enhancing the anticellular effect of HuIFN: 0.01 µM
PLC/PRF/5 cells
  synergistic inhibitory activity, susceptibility: high susceptibility to the synergistic inhibitory activity
MM-1CB cells
  inhibition of tumor growth: more noticeably inhibited
DNA of MM-1CB cells
  DNA damage under alkaline assay conditions: resulted in damaged DNA; also recorded: the most part DNA shifted into lower molecular mass
Interferon effect
  dose that enhances the interferon effect in vitro: less than 1 μM
[1]
  potentiation of PALA: can potentiate the activity of N-phosphoracetyl-L-aspartate (PALA) in vitro and in vivo
[2]
  toxicity of methotrexate (MTX): enhanced the toxicity of methotrexate (MTX)
[3]
  block of the salvage pathway of DNA synthesis: effective blocker of the salvage pathway of DNA synthesis
[4]
  nucleoside transport: can inhibit nucleoside transport through the cell membrane
